Measured values published in doi:10.1101/2025.05.27.25328359, “OSBPL11 is an African-specific locus associated with 25-hydroxyvitamin D concentrations and cardiometabolic health” (medRxiv, 2025).

Target: T1, OSBPL11 (OSBPL11-myc-His) (Homo sapiens, UniProt Q9BXB4)
T1 construct: full length, C-terminal myc-His tag (pcDNA3.1(+)myc/his C), transiently expressed in 293T cells; 100,000 g supernatant (S100) of lysate, not purified
T1 sequence (Q9BXB4 1-747): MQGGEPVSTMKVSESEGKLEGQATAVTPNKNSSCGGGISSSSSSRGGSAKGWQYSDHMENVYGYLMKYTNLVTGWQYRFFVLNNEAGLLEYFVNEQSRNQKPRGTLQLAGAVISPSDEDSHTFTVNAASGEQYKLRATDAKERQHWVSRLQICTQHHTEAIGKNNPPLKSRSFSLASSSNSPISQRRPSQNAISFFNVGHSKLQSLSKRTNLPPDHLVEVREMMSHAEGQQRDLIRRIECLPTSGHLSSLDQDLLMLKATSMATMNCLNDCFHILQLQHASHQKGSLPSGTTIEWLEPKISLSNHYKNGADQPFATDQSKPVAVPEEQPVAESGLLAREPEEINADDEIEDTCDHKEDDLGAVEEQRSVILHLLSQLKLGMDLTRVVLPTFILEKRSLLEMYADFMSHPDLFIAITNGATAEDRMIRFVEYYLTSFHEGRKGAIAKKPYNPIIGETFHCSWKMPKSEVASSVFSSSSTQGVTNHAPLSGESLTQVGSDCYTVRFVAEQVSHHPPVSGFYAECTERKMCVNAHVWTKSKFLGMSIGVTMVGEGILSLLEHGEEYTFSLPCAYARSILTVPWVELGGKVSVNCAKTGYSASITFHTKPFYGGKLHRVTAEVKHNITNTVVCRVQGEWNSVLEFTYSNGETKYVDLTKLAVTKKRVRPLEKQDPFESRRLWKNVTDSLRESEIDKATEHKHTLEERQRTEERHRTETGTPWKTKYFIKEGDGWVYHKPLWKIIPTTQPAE
Test: [3H]-25-hydroxycholesterol competition binding, charcoal/dextran, S100 lysate
Type: biochemical

C[C@H](CCCC(C)(C)O)[C@H]1CC[C@H]2[C@@H]3CC=C4C[C@@H](O)CC[C@]4(C)[C@H]3CC[C@]12C [25-hydroxycholesterol]
Ki: 32 nM
